Test results as given in US20250275940A1, “PTEROSTILBENE AND SILIBININ FOR PREVENTING, AMELIORATING OR REDUCING RADIATION-INDUCED DISEASES” (UNIVERSITAT DE VALÈNCIA, priority 2021, published 2025).
Values belong to the compound of their own block, whether it stands above or below them.

Experiments:
[1] = tested on: Swiss albino mice subjected to whole-body γ irradiation; assay: Survival of mice subjected to whole-body γ irradiation (LD50/30); format: in vivo
Description: Swiss albino mice (male, 9-10 weeks old, 30-32 g) were obtained from Charles River Laboratories (Wilmington, MA). This strain is among the most common used in radiation studies (Williams 2010). Mice were fed with a nutritionally complete diet (standard diet, SD) before irradiation. This was A03 from Panlab (Barcelona, Spain), which has 3,200 kcal/kg and the following nutritional composition: crude protein, 23.5%; crude fat, 4.3%; crude fiber, 3.7%; and carbohydrates, 51.1%; vitamins and minerals were provided as in the NIH-7 open formula for rat and mouse. This diet meets the dietary allowances recommended for adult mice by the American Institute of Nutrition. The animals were fed ad libitum and kept in individual metabolic cages, in which body weight and food ingestion were monitored daily. The animal room was maintained at 22° C. on a 12 h light/12 h dark cycle. Ad libitum intake of drinking water was also allowed. Care of irradiated mice followed the recommendation of the Robert Wood Johnson Medical School (Piscataway, NJ) for mouse total body irradiation (policy 15), which includes: a) use of antibiotics in the drinking water (134 mg ampicillin/kg/day, 40 mg baytril/kg/day, and 220/42 mg sulfamethoxazole/trimethoprim/kg/day), b) making drinking water readily available, c) Napa nectar Systems Engineering Lab Group Inc., Napa, CA) provided on the bottom of the cage during the first 14 days and replaced daily, d) provision of softened food served in a small Petri dish on the cage floor, e) completely sterile environment (cage, food, and water) to avoid potential immunosuppression-associated infections. A free-standing wheel inside the cage was also included to facilitate the physical exercise of the animals. All experiments were started at 10.00 h to minimize possible circadian variations. Procedures involving animals were in compliance with international laws and policies (EEC Directive 86/609, OJ L 358. 1, Dec. 12, 1987; and NIH Guide for the Care and Use of Laboratory Animals, NIH Publ. No. 85-23, 1985). Mice were subjected to g-radiation (^137Cs) (total body irradiation, TBI) in a BIOBEAM 8000 (Gamma-Service Medical GmbH, Leipzig, Germany). Single fraction radiotherapy, at total doses ranging from approx. 5.0 to 10.0 Gy, was administered at a rate of approx. […]. The irradiation distance from the source was limited to 12 cm. Radiation dosimetry was controlled using alanine dosimeters from Bruker (Billerica, MA) with dosimetry variation of +/−0.09 Gy. […] NR (nicotinamide riboside, 3-aminocarbonyl-1-b-D-ribofuranosyl-pyridinium, Elysium Health, Inc., New York, NY) was dissolved in vaccination-grade water, and the pH of the solution neutralized (pH 7.0) before oral administration (185 mg/kg×day, Obrador 2020). FSL-1 (InvivoGen, San Diego, CA) was resuspended in sterile vaccination-grade water, and administered IP (0.25 mg/kg×day, the volume administered was of […] depending on the weight of the mouse, as recommended by Kurkjian 2017). Pharmaceutical grade amifostine (Ethyol) was obtained from Cumberland Pharmaceuticals (Nashville, TN) as 500 mg sterile lyophilized powder vial, and reconstituted with physiological saline prior to use.
First, the effects of γ radiation and mice survival were studied. […] Mice received whole-body γ radiation (one single dose; ^137Cs, 0.5-0.6 Gy/min; Biobeam 8000, GSM GmbH). One Gy=absorption of 1 J of energy/kg of matter.
Next, the thirty-days survival of mice treated with γ rays (LD50/30) and pterostilbene (PT) was analysed (FIG. 1B).

[2] = PT, SIL and NAD+ levels in circulating blood; conditions: treated and irradiated mice, FIG. 10B
Description: Briefly, samples were analyzed through HPLC (Ultimate 3000, Thermo Fisher Scientific) and MS/MS (Waters TQ detector triple quadrupole) systems on a Hypurity™ C18 column (50×4.6 mm) using an injection volume of 5 μL. The mobile phases consisted of water (A) and acetonitrile (B). […] MS/MS data acquisition was performed under negative electrospray ionization mode. […] The fragmentary voltage was 150 V, and the collision energy 15 eV. Tissue sample preparation was as described for determination of PTER levels (above).
Whole-blood samples (0.5 ml) were collected in sodium citrate tubes at 4° C. Then a whole-blood aliquot of 0.1 ml was transferred to a cryovial containing 0.9 ml of 0.5 M ice-cold perchloric acid to lyse all blood cells. Samples were centrifuged at 10,000 g×10 min (4° C.). Supernatants were stored at −80° C. until analyzed.

[3] = tested on: hematopoietic colony forming cells CFU-GM and CFU-GEMM; assay: Colony forming cells in the bone marrow; format: in vivo; conditions: femurs of γ-irradiated mice, 7 days after irradiation, FIG. 14d
Description: (§1) FIG. 14. […] Cells were isolated 72 h after irradiation. […] Mice were treated and cells isolated as above (a).
Mice were sacrificed under aseptic conditions and femurs were isolated on day 7 post irradiation. Bone marrow cells were flushed from the isolated femurs (see above) with phosphate-buffered saline (4° C.) supplemented with 5% fetal bovine serum. Single-cell suspension was passed through 100 μm nylon mesh strainer to remove debris and clumps. Cells were washed twice with phosphate-buffered saline (4° C.) and counted using a hemocytometer. Cells were plated ex vivo at a concentration of 5×10^4 cells per 35 mm cell culture dish in Methocult GF M3434 (Stemcell Technologies, Vancouver, Canada) growth medium according to the manufacturer's protocol and incubated for 14 days at 37° C., 5% CO2, 95% humidity. Colonies were visualized on day 14 of culture using light microscopy (AxioCam MRc5, Zeiss, Oberkochen, Germany) under a polarised light and scanned in a 60 mm gridded scoring Petri dish (Stemcell Technologies). Hematopoietic colony forming cells CFU-GM and CFU-GEMM were quantified.

cellular DNA damage = assay: Comet assay of DNA damage in cells isolated from γ-irradiated mice; format: in vivo; conditions: FIG. 14c
Description: as §1
This assay is a single cell gel electrophoresis assay for simple evaluation of cellular DNA damage. We used the assay kit from Abcam (ab238544) (Cambridge, UK). The manufacturer's instructions were followed step by step.

cellular NAD+ content = assay: NAD+ content of cells isolated from mice; format: in vivo; conditions: FIG. 14a
Description: as §1
Isolated cells were homogenized in 0.1M phosphate buffer (pH 7.2) at 4° C. γ-glu tamylcysteine ligase (GCL), glutathione peroxidase (GPX), catalase (CAT), and superoxide dismutase 1 and 2 (SOD1 and SOD2) activities were measured as previously described in detail (Benlloch 2016). Protein concentration was determined with the Pierce BCA protein assay (Thermo Fisher Scientific). Glutathione ([…]-L-glutamyl-L-cystenyl-glycine, GSH) was determined by LC/MS as previously reported (Obrador 2014). Cell processing was performed according to published methodology, where rapid N-ethylmaleimide derivatization was used to prevent GSH auto-oxidation (Asensi 1994). NAD^+ and NADH in isolated cells were quantitated using assay kits from MyBiosource (San Diego, CA).
Presumably, the effect of the polyphenols is an antioxidant-related mechanism, whereas the NR-induced increase in NAD+ directly promotes the DNA repair activity.

[4] = biological target: nicotinamide phosphoribosyltransferase (NAMPT) (Mus musculus, UniProt Q99KQ4); conditions: mice treated with FK866 for 6 days, FIG. 14b
nicotinamide phosphoribosyltransferase (NAMPT), sequence (Q99KQ4 whole entry): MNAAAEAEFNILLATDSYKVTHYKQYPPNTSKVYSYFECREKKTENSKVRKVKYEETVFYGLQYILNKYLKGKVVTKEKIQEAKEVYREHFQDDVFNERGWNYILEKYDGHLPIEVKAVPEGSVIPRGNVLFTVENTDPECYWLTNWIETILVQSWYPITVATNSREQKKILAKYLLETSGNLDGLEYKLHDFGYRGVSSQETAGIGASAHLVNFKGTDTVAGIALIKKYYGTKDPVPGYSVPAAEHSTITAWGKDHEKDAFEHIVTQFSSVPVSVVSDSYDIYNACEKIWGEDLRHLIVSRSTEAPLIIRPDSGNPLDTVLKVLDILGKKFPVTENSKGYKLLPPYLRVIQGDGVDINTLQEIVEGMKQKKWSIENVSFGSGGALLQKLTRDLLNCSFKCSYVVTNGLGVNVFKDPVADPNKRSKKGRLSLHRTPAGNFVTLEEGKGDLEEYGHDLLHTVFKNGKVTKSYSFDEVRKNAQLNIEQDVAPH
Description: FK866 was administered in vivo (15 mg/kg, twice daily by intraperitoneal injection, during 6 days and starting 3 days prior to irradiation, see FIG. 11a), and was also present in the cell cultures (100 nM). Cells were isolated 72 h after irradiation. […] Mice were treated with the inhibitor for 6 days as above (a).
Formation of 14C-nicotinamide mononucleotide (NMN) from 14C-nicotinamide (NAM, (GE Healthcare Life Sciences, Björkgatan, Uppsala, Sweden) can be measured by precipitation of 14C-NMN in acetone on filter paper and scintillation counting. Cell dispersion was carried out by trypsinization (in Mg^2+- and Ca2^+-free PBS supplemented with 0.2% trypsin, 0.5 mM EDTA, and 5 mM glucose for 3 min at 37° C.). Cell pellets were obtained by centrifugation (800 g×5 min at 4° C.), and then 100 μl of phosphate buffer [0.01 M Na2HPO4/NaH2PO4 buffer, pH 7.4, containing protease inhibitor (Sigma-Aldrich)] was added to each cell sample. Samples were further processed, and NAMPT activity was determined on 30 μg of protein as described previously (Elliott G C, et al. 1980, and Schuster S, et al. 2014). Radioactivity (disintegrations/min) was measured using a Tri-Carb® Liquid Scintillation Counter from Perkin-Elmer. Background disintegrations/min from scintillation fluid was subtracted from each measurement.

[5] = 60 days after γ radiation (LD50/30), compounds administered orally, FIG. 2C
[6] = 60 days post γ irradiation (LD50/30), NR oral 185 mg/kg×day for 30 days after irradiation, FSL-1 IP 0.25 mg/kg once 24 h after, FIG. 9
[7] = 6 days after γ radiation (LD50/30), compounds administered orally, FIG. 2A

Compound: COc1cc([C@@H]2Oc3cc(C4Oc5cc(O)cc(O)c5C(=O)[C@H]4O)ccc3O[C@H]2CO)ccc1O (stereo in doubt) [SIL, 3,5,7-trihydroxy-2-[3-(4-hydroxy-3-methoxyphenyl)-2-(hydroxymethyl)-2,3-dihydro-1,4-benzodioxin-6-yl]-2,3-dihydrochromen-4-one]
- survival [1, 5]: around 10%
- SIL levels in circulating blood, 30 min vs 120 min [2]: higher 30 min after

Compound: FSL-1
- survival [1, 6]: 5%
- hematopoietic colony forming cells CFU-GEMM [3]: increases
- hematopoietic colony forming cells CFU-GM [3]: increases

Compound: O=C(O)c1cc(O)c(O)c(O)c1 [Gallic acid, gallic acid]
- survival [1, 7]: around 100%
- survival [1, 5]: around 5%

Compound: O=C(O[C@@H]1Cc2c(O)cc(O)cc2O[C@@H]1c1cc(O)c(O)c(O)c1)c1cc(O)c(O)c(O)c1 [EGCG, epigallocatechin gallate]
- survival [1, 7]: around 100%
- survival [1, 5]: 0%

Compound: Oc1ccc(C=Cc2cc(O)cc(O)c2)cc1 [Resv, resveratrol]
- radioprotective effects compared with PT ([1]; orally once per day, 5 days before and 2 days after γ irradiation (7.2 Gy), FIG. 1C): lower than those of PT

Compound: O=C1C[C@@H](c2ccc(O)cc2)Oc2cc(O)cc(O)c21 [Naringerin, naringenin]
- survival [1, 5]: 0%

Compound: O=c1cc(-c2ccc(O)c(O)c2)oc2cc(O)cc(O)c12 [Luteolin, luteolin]
- survival [1, 5]: 0%
- percentage of survival reduced in ([1]; after 30 days, γ radiation (LD50/30), oral, FIG. 2B): about 40%

Compound: O=c1c(-c2ccc(O)cc2)coc2cc(O)cc(O)c12 [Genistein, genistein]
- survival [1, 5]: around 7%

Compound: NC(=O)c1ccc[n+]([C@@H]2O[C@H](CO)[C@@H](O)[C@H]2O)c1 [NR, 3-aminocarbonyl-1-b-D-ribofuranosyl-pyridinium]
- survival [1, 6]: 0%
- DNA recovery (DNA damage COMET assay) (cellular DNA damage): favored DNA recovery
- decrease of NAD+ induced by γ radiation (cellular NAD+ content; cells isolated 72 h after irradiation): prevents
- NAD+ content in different cell types (cellular NAD+ content; cells isolated from treated mice): increases

- NAMPT activity [4]: drastic decrease
Compound: O=C(/C=C/c1cccnc1)NCCCCC1CCN(C(=O)c2ccccc2)CC1 [FK866, reference compound]
- NAD+ levels in mice treated with PT+SIL+NR or PT+SIL+NR+γ rays (cellular NAD+ content; FK866 15 mg/kg twice daily IP 6 days and 100 nM in cell cultures): decreased

Compound: Oc1cc(O)c2cc(O)c(-c3cc(O)c(O)c(O)c3)[o+]c2c1 [Delphinidin]
- survival [1, 5]: around 12%

Compound: O=c1c(O)c(-c2ccc(O)c(O)c2)oc2cc(O)cc(O)c12 [Quercetin, quercetin]
- survival [1, 5]: 0%

Compound: O=C(CCc1ccc(O)cc1)c1c(O)cc(O)cc1O[C@@H]1O[C@H](CO)[C@@H](O)[C@H](O)[C@H]1O [Phloridzin, phloridzin]
- survival [1, 5]: 0%
